Experimental data published in patent US6492365B1, “Microsomal triglyceride transfer protein” (Bristol-Myers Squibb Company, priority 1992, dated 2002).
Where a name gives a salt, the structure may show the parent alone.

Target: T1, bovine MTP (Bos taurus, UniProt P55156)
T1 construct: with about 50-200 ng purified MTP in the well of a 96-well plate; from tissue; host or cells: bovine liver
T1 sequence (P55156 12-887): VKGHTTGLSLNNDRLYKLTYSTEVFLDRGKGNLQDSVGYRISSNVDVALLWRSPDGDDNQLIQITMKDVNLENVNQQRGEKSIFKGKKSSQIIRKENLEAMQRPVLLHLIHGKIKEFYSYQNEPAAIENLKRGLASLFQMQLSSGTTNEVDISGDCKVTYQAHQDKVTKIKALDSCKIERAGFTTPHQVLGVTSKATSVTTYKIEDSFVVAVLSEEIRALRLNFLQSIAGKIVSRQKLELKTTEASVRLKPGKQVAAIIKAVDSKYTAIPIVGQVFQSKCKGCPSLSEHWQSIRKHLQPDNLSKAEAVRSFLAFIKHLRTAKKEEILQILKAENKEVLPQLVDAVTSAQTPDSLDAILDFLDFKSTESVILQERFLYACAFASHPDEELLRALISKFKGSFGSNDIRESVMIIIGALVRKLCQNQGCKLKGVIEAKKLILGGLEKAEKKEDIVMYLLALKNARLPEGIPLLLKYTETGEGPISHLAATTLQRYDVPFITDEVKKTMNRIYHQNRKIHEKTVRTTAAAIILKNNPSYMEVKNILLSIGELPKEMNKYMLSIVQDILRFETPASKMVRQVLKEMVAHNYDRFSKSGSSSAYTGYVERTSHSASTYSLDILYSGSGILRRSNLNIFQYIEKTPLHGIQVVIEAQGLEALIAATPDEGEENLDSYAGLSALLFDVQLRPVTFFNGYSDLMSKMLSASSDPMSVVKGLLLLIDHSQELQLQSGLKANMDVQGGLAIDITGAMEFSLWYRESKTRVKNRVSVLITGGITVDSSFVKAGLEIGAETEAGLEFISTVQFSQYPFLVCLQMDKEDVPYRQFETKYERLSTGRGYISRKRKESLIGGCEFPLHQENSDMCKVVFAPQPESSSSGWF
T1 sequence (P05307 21-510 partner): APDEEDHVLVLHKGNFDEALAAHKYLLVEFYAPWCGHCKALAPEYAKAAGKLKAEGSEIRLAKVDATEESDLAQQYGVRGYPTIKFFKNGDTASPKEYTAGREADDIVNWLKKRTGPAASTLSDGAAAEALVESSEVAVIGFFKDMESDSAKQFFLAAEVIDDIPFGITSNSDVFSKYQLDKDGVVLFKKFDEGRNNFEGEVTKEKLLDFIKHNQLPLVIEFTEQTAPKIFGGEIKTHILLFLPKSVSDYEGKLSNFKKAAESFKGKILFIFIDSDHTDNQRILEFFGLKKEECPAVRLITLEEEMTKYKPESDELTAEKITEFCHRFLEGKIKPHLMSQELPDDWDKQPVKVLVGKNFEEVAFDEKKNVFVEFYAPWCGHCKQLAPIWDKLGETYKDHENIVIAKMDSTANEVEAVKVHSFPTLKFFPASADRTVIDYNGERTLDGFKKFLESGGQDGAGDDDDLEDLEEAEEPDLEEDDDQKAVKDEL
Assay: MTP-catalyzed transport of 14C-CE from donor SUV to acceptor SUV
Format: biochemical
Experimental: To measure the effect of compound A on bovine MTP-catalyzed transport of CE or PC between membranes, the lipid transfer assay which measures TG transfer between SUV was modified. The composition of the donor vesicles was the same, except 0.25 mol% ^14C-CE or ^14C-PC replaced the labeled TG. The composition of the acceptor vesicles were the same, except labeled PC and unlabeled TG were not included. Following precipitation of donor vesicles, the percentage of lipid transfer was calculated by comparing the ^14C-CE or -PC in the acceptor vesicles in the supernatant following a transfer reaction to the total ^14C-CE or -PC in the assay. The labeled lipid in the supernatant in the absence of MTP was subtracted from the labeled lipid in the presence MTP to calculate the MTP-catalyzed lipid transfer from donor SUV to acceptor SUV. The remainder of the assay was essentially as described previously.

O=C1c2ccccc2CN1C1CCN(CCC(c2ccccc2)c2ccccc2)CC1 [compound A, 2-[1-(3,3-diphenylpropyl)-4-piperdinyl]-2,3-dihydro-3-oxo-1H-isoindole hydrochloride]
decrease of CE transfer (at concentrations that inhibited approximately 40% of PC transfer): more than 80% | inhibition of CE transfer (result in words): comparable to its inhibition of TG transfer
